Results as given in ChEMBL document CHEMBL1955809, “Discovery of GS-9256: a novel phosphinic acid derived inhibitor of the hepatitis C virus NS3/4A protease with potent clinical activity” (Bioorg Med Chem Lett, 2012).
The source made the active and inactive calls. The calls are words filed in the database; no cut-off is given here.

Tests used:
Hepatitis C virus [1] = test: Inhibition of HCV1b NS3/4A protease; parameters: species or system Hepatitis C virus subtype 1b; details: for IC50: Hepatitis C virus
Hepatitis C virus [2] = test: Antiviral activity against HCV genotype 1b infected in human Huh cells expressing luc gene by replicon assay; assay type: functional, organism-based, Hepacivirus hominis
[3] = Permeability from basolateral to apical side in human Caco2 cells; assay type: ADME, cell-based; details: Caco-2, read-out: permeability
[4] = Permeability from apical to basolateral side in human Caco2 cells; assay type: ADME, cell-based; details: Caco-2, read-out: permeability
[5] = Clearance in dog; assay type: ADME, organism-based, Canis lupus familiaris; details: in vivo
Hepatitis C virus [6] = test: Antiviral activity against HCV genotype 1 infected in human at 300 mg, po; assay type: functional, Hepacivirus hominis
[7] = Inhibition of CYP450; assay type: ADME
Hepatitis C virus [8] = test: Antiviral activity against HCV genotype 1 infected in human at 450 mg, po; assay type: functional, Hepacivirus hominis
[9] = biological target: T1, Solute carrier family 22 member 6 (Homo sapiens, UniProt Q4U2R8); test: Activity at OAT1
T1 sequence (Q4U2R8 whole entry): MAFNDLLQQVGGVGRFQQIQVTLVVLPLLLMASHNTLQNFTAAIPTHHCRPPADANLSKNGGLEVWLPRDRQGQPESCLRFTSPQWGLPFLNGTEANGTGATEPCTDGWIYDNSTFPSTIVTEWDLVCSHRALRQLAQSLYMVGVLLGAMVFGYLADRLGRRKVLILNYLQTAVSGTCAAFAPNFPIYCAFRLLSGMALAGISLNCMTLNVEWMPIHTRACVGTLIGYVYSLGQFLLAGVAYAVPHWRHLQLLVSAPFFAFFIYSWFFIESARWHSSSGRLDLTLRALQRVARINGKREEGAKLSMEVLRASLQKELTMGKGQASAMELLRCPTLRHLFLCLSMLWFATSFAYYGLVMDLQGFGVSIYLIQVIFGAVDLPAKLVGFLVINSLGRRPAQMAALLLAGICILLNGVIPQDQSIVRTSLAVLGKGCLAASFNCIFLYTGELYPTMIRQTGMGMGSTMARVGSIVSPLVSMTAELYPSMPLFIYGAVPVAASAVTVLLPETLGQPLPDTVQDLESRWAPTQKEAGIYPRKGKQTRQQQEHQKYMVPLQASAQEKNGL

[10] = Oral bioavailability in dog at 4 mg/kg; assay type: ADME, organism-based, Canis lupus familiaris; details: in vivo
Hepatitis C virus [11] = test: Antiviral activity against HCV genotype 1 infected in human at 150 mg, po; assay type: functional, Hepacivirus hominis
[12] = Selectivity ratio of IC50 for cathepsin D to IC50 for HCV1b NS3/4A protease
[13] = Selectivity ratio of IC50 for cathepsin L to IC50 for HCV1b NS3/4A protease
Bile salt export pump = Bile salt export pump (Homo sapiens, UniProt O95342); test: Inhibition of BSEP
[14] = Drug excretion in iv dosed bile-cannulated rat bile assessed as parent compound level after 4 hrs; assay type: ADME, organism-based; details: read-out: Ae
[15] = Selectivity ratio of IC50 human protease 3 to IC50 for HCV 1b NS3/4A protease
[16] = Half life in human; assay type: ADME, organism-based; details: in vivo
[17] = Selectivity ratio of IC50 for human leukocyte protease to IC50 for HCV1b NS3/4A protease
[18] = biological target: T2, Solute carrier family 22 member 7 (Homo sapiens, UniProt Q9Y694); test: Activity at OAT2
T2 sequence (Q9Y694 whole entry): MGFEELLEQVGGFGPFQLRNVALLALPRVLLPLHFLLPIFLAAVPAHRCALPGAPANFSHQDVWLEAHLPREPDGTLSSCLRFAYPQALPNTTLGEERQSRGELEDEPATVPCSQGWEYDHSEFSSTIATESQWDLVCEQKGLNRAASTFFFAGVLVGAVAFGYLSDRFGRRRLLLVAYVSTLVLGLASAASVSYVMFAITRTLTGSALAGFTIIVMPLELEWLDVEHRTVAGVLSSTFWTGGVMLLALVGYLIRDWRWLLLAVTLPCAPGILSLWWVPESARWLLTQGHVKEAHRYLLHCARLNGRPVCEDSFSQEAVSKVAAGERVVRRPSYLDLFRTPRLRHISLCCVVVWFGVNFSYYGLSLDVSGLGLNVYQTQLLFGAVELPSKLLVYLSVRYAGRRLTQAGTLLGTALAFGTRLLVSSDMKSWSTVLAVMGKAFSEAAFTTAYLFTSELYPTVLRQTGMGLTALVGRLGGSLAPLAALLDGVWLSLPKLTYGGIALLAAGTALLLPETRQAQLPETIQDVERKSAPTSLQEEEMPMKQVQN

[19] = Inhibition of P-glycoprotein
[20] = Selectivity ratio of IC50 for porcine pancreatic elastase to IC50 for HCV1b NS3/4A protease
[21] = biological target: Voltage-gated inwardly rectifying potassium channel KCNH2 (Homo sapiens, UniProt Q12809); test: Inhibition of human ERG up to 25 uM
[22] = Volume of distribution at steady state in dog at 1 mg/kg, iv and 4 mg/kg, po; assay type: ADME, organism-based, Canis lupus familiaris; details: in vivo, read-out: Vdss
[23] = Clearance in dog at 1 mg/kg, iv and 4 mg/kg, po; assay type: ADME, organism-based, Canis lupus familiaris; details: in vivo
Canis familiaris = test: AUC in dog at 1 mg/kg, iv and 4 mg/kg, po; assay type: ADME, organism-based, Canis lupus familiaris, Plasma; details: in vivo
[24] = Dissociation constant, pKa of the compound; assay type: physicochemical
[25] = Half life in dog at 1 mg/kg, iv; assay type: ADME, organism-based, Canis lupus familiaris; parameters: dose 1 mg/kg, route intravenous; details: in vivo

Sequence of Bile salt export pump (O95342 whole entry): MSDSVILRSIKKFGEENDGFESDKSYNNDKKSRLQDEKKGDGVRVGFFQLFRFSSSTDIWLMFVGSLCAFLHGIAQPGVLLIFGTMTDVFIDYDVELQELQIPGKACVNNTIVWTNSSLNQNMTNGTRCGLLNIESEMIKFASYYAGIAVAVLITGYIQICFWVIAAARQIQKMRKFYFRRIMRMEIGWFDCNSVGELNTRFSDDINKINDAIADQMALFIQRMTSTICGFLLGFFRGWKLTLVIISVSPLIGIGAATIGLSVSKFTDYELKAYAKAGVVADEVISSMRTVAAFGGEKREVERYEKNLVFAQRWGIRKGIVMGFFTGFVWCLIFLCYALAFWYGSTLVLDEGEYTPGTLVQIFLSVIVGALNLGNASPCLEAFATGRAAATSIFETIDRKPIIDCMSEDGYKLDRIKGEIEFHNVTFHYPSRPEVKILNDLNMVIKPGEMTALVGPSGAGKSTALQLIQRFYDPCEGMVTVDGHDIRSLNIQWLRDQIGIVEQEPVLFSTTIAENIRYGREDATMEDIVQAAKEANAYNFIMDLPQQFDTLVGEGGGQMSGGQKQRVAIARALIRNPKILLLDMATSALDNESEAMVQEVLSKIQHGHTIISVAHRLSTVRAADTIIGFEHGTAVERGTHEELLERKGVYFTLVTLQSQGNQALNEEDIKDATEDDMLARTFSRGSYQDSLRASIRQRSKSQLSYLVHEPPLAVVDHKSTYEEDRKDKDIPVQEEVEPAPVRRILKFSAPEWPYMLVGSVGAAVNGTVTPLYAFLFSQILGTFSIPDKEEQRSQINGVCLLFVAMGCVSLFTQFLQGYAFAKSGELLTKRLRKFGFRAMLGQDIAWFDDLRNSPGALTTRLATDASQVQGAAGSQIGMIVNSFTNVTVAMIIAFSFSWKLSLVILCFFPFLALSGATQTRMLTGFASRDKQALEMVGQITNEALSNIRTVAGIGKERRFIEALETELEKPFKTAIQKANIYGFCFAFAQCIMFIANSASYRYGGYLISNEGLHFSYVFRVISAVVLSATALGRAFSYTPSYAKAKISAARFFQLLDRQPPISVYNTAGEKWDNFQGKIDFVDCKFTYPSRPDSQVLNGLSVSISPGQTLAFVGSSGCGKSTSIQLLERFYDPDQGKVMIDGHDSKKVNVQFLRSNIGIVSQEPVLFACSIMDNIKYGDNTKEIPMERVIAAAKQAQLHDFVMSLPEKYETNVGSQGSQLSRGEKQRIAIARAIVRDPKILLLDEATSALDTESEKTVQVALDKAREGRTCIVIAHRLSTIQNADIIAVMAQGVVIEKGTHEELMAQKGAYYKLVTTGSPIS
Sequence of Voltage-gated inwardly rectifying potassium channel KCNH2 (Q12809 whole entry): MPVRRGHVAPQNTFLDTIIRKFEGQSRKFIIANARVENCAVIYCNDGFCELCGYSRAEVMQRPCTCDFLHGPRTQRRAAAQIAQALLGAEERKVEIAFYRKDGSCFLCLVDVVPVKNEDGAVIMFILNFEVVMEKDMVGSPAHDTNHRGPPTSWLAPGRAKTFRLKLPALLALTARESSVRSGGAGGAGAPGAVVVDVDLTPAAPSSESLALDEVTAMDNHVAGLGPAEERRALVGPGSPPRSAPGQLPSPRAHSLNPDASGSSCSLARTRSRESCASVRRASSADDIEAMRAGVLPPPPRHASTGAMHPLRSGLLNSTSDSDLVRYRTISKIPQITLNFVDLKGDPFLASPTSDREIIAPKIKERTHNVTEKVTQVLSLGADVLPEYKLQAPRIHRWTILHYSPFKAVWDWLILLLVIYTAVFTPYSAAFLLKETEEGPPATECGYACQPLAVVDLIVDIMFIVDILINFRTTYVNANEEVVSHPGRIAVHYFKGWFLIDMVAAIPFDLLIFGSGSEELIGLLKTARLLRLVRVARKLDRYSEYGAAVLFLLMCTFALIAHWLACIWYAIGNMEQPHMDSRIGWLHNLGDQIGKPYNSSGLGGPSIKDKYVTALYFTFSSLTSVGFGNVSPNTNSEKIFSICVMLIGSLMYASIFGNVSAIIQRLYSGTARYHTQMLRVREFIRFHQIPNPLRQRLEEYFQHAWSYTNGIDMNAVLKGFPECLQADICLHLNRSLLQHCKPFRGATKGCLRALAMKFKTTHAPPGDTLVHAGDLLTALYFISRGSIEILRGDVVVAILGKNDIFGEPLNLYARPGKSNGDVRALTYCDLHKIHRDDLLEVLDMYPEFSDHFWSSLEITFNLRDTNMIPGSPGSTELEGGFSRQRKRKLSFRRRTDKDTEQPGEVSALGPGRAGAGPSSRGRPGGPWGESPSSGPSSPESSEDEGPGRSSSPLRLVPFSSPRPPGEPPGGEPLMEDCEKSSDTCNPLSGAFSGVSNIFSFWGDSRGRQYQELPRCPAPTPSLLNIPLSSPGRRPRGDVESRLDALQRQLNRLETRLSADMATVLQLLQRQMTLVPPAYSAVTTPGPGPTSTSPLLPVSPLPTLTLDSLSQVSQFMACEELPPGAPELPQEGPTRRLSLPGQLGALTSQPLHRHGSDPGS

Compound | IC50 (Hepatitis C virus [1]) [nM] | EC50 (Hepatitis C virus [2]) [nM] | Papp B→A [3] [×10⁻⁶ cm/s] | Papp A→B [4] [×10⁻⁶ cm/s] | also measured
C=C[C@@H]1C[C@]1(NC(=O)[C@@H]1C[C@@H](Oc2cc(-c3csc(NC(C)C)n3)nc3cc(OC)ccc23)CN1C(=O)[C@@H](NC(=O)OC1CCCC1)C(C)(C)C)P(=O)(O)Cc1cccc(C)c1 | 8 | 331 | 3.5 | 0.64 | 
COc1ccc2c(O[C@@H]3C[C@H]4C(=O)N[C@]5(P(=O)(O)Cc6ccccc6)C[C@H]5CCCCCCC[C@H](NC(=O)OC5CCCC5)C(=O)N4C3)cc(-c3csc(NC(C)C)n3)nc2c1 | 6 | 5 |  |  | clearance [5]: 6 mL/min/kg
C=C[C@@H]1C[C@]1(NC(=O)[C@@H]1C[C@@H](Oc2cc(-c3csc(NC(C)C)n3)nc3cc(OC)ccc23)CN1C(=O)[C@@H](NC(=O)OC1CCCC1)C(C)(C)C)P(=O)(O)Cc1ccc(OC)cc1 | 10 | 460 | 5.83 | 0.71 | 
C=C[C@@H]1C[C@]1(NC(=O)[C@@H]1C[C@@H](Oc2cc(-c3csc(NC(C)C)n3)nc3cc(OC)ccc23)CN1C(=O)[C@@H](NC(=O)OC1CCCC1)C(C)(C)C)P(=O)(O)Cc1c(C)cccc1C | 63 | 7700 | 2.93 | 0.19 | 
C=C[C@@H]1C[C@]1(NC(=O)[C@@H]1C[C@@H](Oc2cc(-c3csc(NC(C)C)n3)nc3cc(OC)ccc23)CN1C(=O)[C@@H](NC(=O)OC1CCCC1)C(C)(C)C)P(=O)(O)Cc1c(F)cccc1Cl | 6 | 120 | 5.87 | 0.89 | 
COc1ccc2c(O[C@@H]3C[C@H]4C(=O)N[C@]5(P(=O)(O)Cc6c(F)cccc6F)C[C@H]5CCCCCCC[C@H](NC(=O)OC5CCCC5)C(=O)N4C3)cc(-c3csc(NC(C)C)n3)nc2c1Cl [GS-9256] | 4 | 20 |  |  | Activity (Hepatitis C virus [6]): -2.4 log10IU/ml; inhibition (INH) [7]: Not Active; Activity (Hepatitis C virus [8]): -2.8 log10IU/ml; Activity [9]: Active; bioavailability [10]: 21%; Ki (Hepatitis C virus [1]): 0.089 nM; Activity (Hepatitis C virus [11]): -1.8 log10IU/ml; Ratio IC50 [12]: 5300; Ratio IC50 [13]: 5400; inhibition (INH) (Bile salt export pump): Active; dose excreted at 4 h [14]: 95%; Ratio IC50 [15]: 6600; half-life [16]: 7 h; Ratio IC50 [17]: 987; Activity [18]: Active; inhibition [19]: Active; Ratio IC50 [20]: 28600; inhibition (INH) [21]: Not Active
C=C[C@@H]1C[C@]1(NC(=O)[C@@H]1C[C@@H](Oc2cc(-c3csc(NC(C)C)n3)nc3cc(OC)ccc23)CN1C(=O)[C@@H](NC(=O)OC1CCCC1)C(C)(C)C)P(=O)(O)Cc1ccccc1F | 4 | 170 | 2.74 | 0.53 | 
C=C[C@@H]1C[C@]1(NC(=O)[C@@H]1C[C@@H](Oc2cc(-c3csc(NC(C)C)n3)nc3cc(OC)ccc23)CN1C(=O)[C@@H](NC(=O)OC1CCCC1)C(C)(C)C)P(=O)(O)Cc1c(F)cccc1F | 4 | 74 | 10.6 | 1.22 | bioavailability [10]: 8%; Vd [22]: 0.31 L/kg; dose excreted at 4 h [14]: > 90%; clearance [23]: 6.17 mL/min/kg; AUC (Canis familiaris): 3.12 µM·h; pKa [24]: 2.7; half-life [25]: 1.6 h
COc1ccc2c(O[C@@H]3C[C@H]4C(=O)N[C@]5(P(=O)(O)Cc6c(F)cccc6F)C[C@H]5CCCCCCC[C@H](NC(=O)OC5CCCC5)C(=O)N4C3)cc(-c3csc(NC(C)C)n3)nc2c1Br | 3 | 7 |  |  | bioavailability [10]: 4.1%
C=C[C@@H]1C[C@]1(NC(=O)[C@@H]1C[C@@H](Oc2cc(-c3csc(NC(C)C)n3)nc3cc(OC)ccc23)CN1C(=O)[C@@H](NC(=O)OC1CCCC1)C(C)(C)C)P(=O)(O)Cc1ccccc1 | 7 | 170 | 6.1 | 0.7 | 
C=C[C@@H]1C[C@]1(NC(=O)[C@@H]1C[C@@H](Oc2cc(-c3csc(NC(C)C)n3)nc3cc(OC)ccc23)CN1C(=O)[C@@H](NC(=O)OC1CCCC1)C(C)(C)C)P(=O)(O)Cc1ccc(F)cc1 | 7 | 284 | 4.38 | 0.84 | 
COc1ccc2c(O[C@@H]3C[C@H]4C(=O)N[C@]5(P(=O)(O)Cc6c(F)cccc6F)C[C@H]5CCCCCCC[C@H](NC(=O)OC5CCCC5)C(=O)N4C3)cc(-c3csc(NC(C)C)n3)nc2c1F | 11 | 43 |  |  | bioavailability [10]: 6%
C=C[C@@H]1C[C@]1(NC(=O)[C@@H]1C[C@@H](Oc2cc(-c3csc(NC(C)C)n3)nc3cc(OC)ccc23)CN1C(=O)[C@@H](NC(=O)OC1CCCC1)C(C)(C)C)P(=O)(O)Cc1cccc(OC)c1 | 7 | 540 | 8.28 | 0.39 | 
C=C[C@@H]1C[C@]1(NC(=O)[C@@H]1C[C@@H](Oc2cc(-c3csc(NC(C)C)n3)nc3cc(OC)ccc23)CN1C(=O)[C@@H](NC(=O)OC1CCCC1)C(C)(C)C)P(=O)(O)Cc1cccc(F)c1 | 8 | 239 | 1.8 | 0.34 | 
C=C[C@@H]1C[C@]1(NC(=O)[C@@H]1C[C@@H](Oc2cc(-c3csc(NC(C)C)n3)nc3cc(OC)ccc23)CN1C(=O)[C@@H](NC(=O)OC1CCCC1)C(C)(C)C)P(=O)(O)Cc1ccccc1OC | 6 | 48 | 6.2 | 0.43 | 
COc1ccc2c(O[C@@H]3C[C@H]4C(=O)N[C@]5(P(=O)(O)Cc6c(F)cccc6F)C[C@H]5CCCCCCC[C@H](NC(=O)OC5CCCC5)C(=O)N4C3)cc(-c3csc(NC(C)C)n3)nc2c1 | 4 | 10 |  |  | bioavailability [10]: 2.9%
C=C[C@@H]1C[C@]1(NC(=O)[C@@H]1C[C@@H](Oc2cc(-c3csc(NC(C)C)n3)nc3cc(OC)ccc23)CN1C(=O)[C@@H](NC(=O)OC1CCCC1)C(C)(C)C)P(=O)(O)Cc1c(F)cccc1C(F)(F)F | 6 | 340 | 6.36 | 0.53 | 
C=C[C@@H]1C[C@]1(NC(=O)[C@@H]1C[C@@H](Oc2cc(-c3csc(NC(C)C)n3)nc3cc(OC)ccc23)CN1C(=O)[C@@H](NC(=O)OC1CCCC1)C(C)(C)C)P(=O)(O)Cc1ccc(C)cc1 | 15 | 860 | 12 | 0.69 | 
C=C[C@@H]1C[C@]1(NC(=O)[C@@H]1C[C@@H](Oc2cc(-c3csc(NC(C)C)n3)nc3cc(OC)ccc23)CN1C(=O)[C@@H](NC(=O)OC1CCCC1)C(C)(C)C)P(=O)(O)Cc1ccccc1C | 8 | 146 | 3.9 | 0.69 | 
COc1ccc2c(O[C@@H]3C[C@H]4C(=O)N[C@]5(C(=O)O)C[C@H]5/C=C\CCCCC[C@H](NC(=O)OC5CCCC5)C(=O)N4C3)cc(-c3csc(NC(C)C)n3)nc2c1 [CILUPREVIR] | 1 | 1 |  |  | 
